Patent publication US12037317B2, “Synthesis of 3-hydroxybutyryl 3-hydroxybutyrate and related compounds” (Buck Institute for Research on Aging, priority 2018, dated 2024)
Entries after “also recorded” stand apart in the source; their conditions may differ.

Tests used:
[1] = disclosed in co-owned U.S. Provisional Application No. 62/535,754; cited from earlier work
[2] = test system: histone deacetylases (HDAC); assay: in vitro HDAC assay (Fluor de Lys Green kit, Enzo); format: biochemical; conditions: comparison with a different, previously published assay
Experimental: (§1) The activity of S-BHB and R-BHB enantiomers in inhibiting histone deacetylases was tested. This is an in vitro HDAC assay performed using the sodium salt of S-BHB and R-BHB with a commercial assay kit, Fluor de Lys Green from Enzo.

[3] = test system: T1, histone deacetylases (HDAC); assay: in vitro HDAC assay (Fluor de Lys Green kit, Enzo); format: biochemical; conditions: sodium salt
T1 construct: other: sodium salt; Fluor de Lys Green kit; same assay as S-BHB
Experimental: as §1

[4] = humans on a normal diet, ingested orally; cited from earlier work
[5] = ingested as a drink, compared to equivalent calories as carbohydrate; cited from earlier work

Row | Compound | serum half-life compared to the R-enantiomer [1] | potency for HDAC inhibition relative to published potency of R-BHB in a different assay (Shimazu et al., Science 2013) [2] [fold] | inhibition of deacetylase activity (in words) [3] | IC50 ([3]; Fluor de Lys Green kit, read-out: HDAC inhibition IC50) [mM] | level of ketosis [4] [µM] | performance in cycling time-trial test [5] | maximum inhibition of HDAC activity ([3]; same assay as S-BHB)
1 | C[C@H](O)CC(=O)O [S-BHB, (S)-β-hydroxybutyric acid] | substantially improved | ≤ 2 | even more effective than R-BHB; also recorded: dose-dependent inhibition | 7.3 |  |  | 
2 | C[C@@H](O)CCOC(=O)C[C@@H](C)O [R-3-hydroxybutyryl R-3-hydroxybutyrate, (R) 3-hydroxybutyryl (R) 3-hydroxy butyrate] |  |  |  |  | ~6000 | improved performance | 
3 | C[C@@H](O)CC(=O)O [R-BHB, R-β-Hydroxybutyrate, reference compound] |  |  | partial inhibition |  |  |  | about 50%
